Source: patent US12577247B2 (BUGWORKS RESEARCH, INC., priority 2021, dated 2026)

Legend:
[1] = Pharmacokinetic study in rats; type: in vivo, male Sprague-Dawley (SD) rats; settings: for Vd / clearance / half-life / Cmax / Tmax / bioavailability: male, Sprague-Dawley, plasma; for Vd: read-out: Vss; for Cmax / Tmax: p.o; for Cmax: read-out: Cmax (head Co*/); for Tmax: read-out: Tmax (head Tma); for bioavailability: rat
Experimental: (§1) Intravenous (i.v) and Oral formulations for pharmacokinetic (PK) studies was formulated in different vehicles and excipients to achieve the desirable solubility for intravenous and Oral routes of administration.
(§2) Appropriate amount of the test compound was weighed and dissolved in required volume of the vehicles, followed by vertexing for a few seconds to dissolve the compound. Then the solution (or) suspension was sonicated at room temperature for 5 minutes to obtain a visually clear solution and or homogenous suspension. All the formulations were prepared freshly at room temperature before dosing.
The rodent pharmacokinetic studies were carried out in male Sprague-Dawley (SD) rats (8-12 weeks of age, weighing 280±20 g at the time of dosing) and CD1 mice (8-12 weeks of age, weighing 30-35 g body weight at the time of dosing) to estimate the plasma clearance, volume of distribution and terminal half-life, area under curve (AUC) and peak plasma concentration (Cmax) and time of peak plasma concentration (Tmax) following intravenous and oral routes of administration. The detailed experimental design is described in the Table 8 below.
Rats were anaesthetized by Isoflurane anaesthesia. The jugular and femoral veins of rat were cannulated, and the study was performed 48 h post cannulation. At each time point about 100 μL, of rat blood was collected from the jugular vein into a labelled microfuge tube containing 200 mM K2EDTA solution (20 μL, per mL of blood) and equivalent volume of heparinized saline was replaced following sample collection. Similarly, 25 μL, of mice blood was collected from the saphenous vein into a labelled microfuge tube containing 200 mM K2EDTA solution
Serial blood sampling method was used for blood collection. Blood samples were collected at pre-dose, 0.25 h, 0.5, 1, 2, 4, 6, 8 and 24-hours post dose. The blood samples were processed to obtain the plasma samples within 30 min of scheduled sampling time. All plasma samples were stored −70° C. until bioanalysis.
(§3) Plasma samples were analysed for a fit-for purpose LC-MS/MS method with a lower limit of quantification. The pharmacokinetic parameters were calculated using the non-compartmental analysis tool of validated Phoenix® WinNonlin® software (Certara, USA version 8.4) with linear up and log down method for estimating AUC.
(§4) All animals in intravenous (IV bolus) group were under fed state and animals in oral groups were fasted overnight (min 12 hr) before dose administration and food was provided 4 h post dose administration. All animals were received water ad libitum during the study period. The mean (±SD) pharmacokinetic parameters of Example 13, Example 122b & Example 39 following IV bolus and Oral dose administration in Mice/Rat and Dog is provided in Table-9.

[2] = biological target: T1, A2B receptor (Homo sapiens, UniProt P29275); test: A2bR antagonism IC50, cAMP TR-FRET in HEK-293 cells, high concentration of adenosine (30 μM); settings: A2BR IC50 (nM) (@30 μM Adenosine), HEK-293 cells expressing A2B receptor; agonist adenosine 30 μM; 2% HSA; inhibition of cAMP;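 also: compounds preincubated 10 min with cells, then adenosine stimulation 30 min at room temperature in buffer with Rolipram 100 µM and EHNA 30 µM, TR-FRET read after 1 h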
T1 sequence (P29275 1-332): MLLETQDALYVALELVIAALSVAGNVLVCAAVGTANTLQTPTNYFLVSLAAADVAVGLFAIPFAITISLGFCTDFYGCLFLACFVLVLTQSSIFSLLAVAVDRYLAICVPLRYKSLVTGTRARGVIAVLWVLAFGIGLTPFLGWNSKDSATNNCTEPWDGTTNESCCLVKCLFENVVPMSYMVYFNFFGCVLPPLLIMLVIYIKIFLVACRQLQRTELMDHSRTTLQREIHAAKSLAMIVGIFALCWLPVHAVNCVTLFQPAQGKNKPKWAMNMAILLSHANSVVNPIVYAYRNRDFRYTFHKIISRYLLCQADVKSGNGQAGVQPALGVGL

[3] = Pharmacokinetic study in dogs; type: in vivo, male Beagle dogs; settings: for half-life / Vd / clearance / bioavailability / Cmax / Tmax: male, Beagle, plasma; for half-life: dog; for Vd: read-out: Vss; for Cmax / Tmax: po, p.o; for Cmax: read-out: Cmax (head Co*/); for Tmax: read-out: Tmax (head Tma)
Experimental: as §1, §2
The dog PK study was carried out in male Beagle dogs of minimum 10 Kg body weight to estimate the plasma clearance, volume of distribution and terminal half-life, area under curve (AUC) and peak plasma concentration (Cmax), time of peak plasma concentration (Tmax) and absolute bioavailability (% F) following intravenous and oral routes of administration.
Briefly, Example 13 and Example 39 was administered to a group of 3 non-naïve male dogs. The first set of 3 animals received an intravenous administration and following a washout period of 7 days, received an oral administration of Example 13. Following a further 7-day washout the animals will then repeat the intravenous and oral dosing regimen with an administration of Example 39. Blood samples (1 mL) was collected from the jugular vein by venepuncture into tubes containing K2EDTA anticoagulant at the following sampling times: • IV: Predose, 0.083 (5 min), 0.25, 0.5, 1, 2, 4, 8 and 24 hrs post-dose. • PO: Predose, 0.25, 0.5, 1, 2, 4, 8 and 24 hrs post-dose.
Immediately following collection blood samples was inverted to ensure mixing with anticoagulant and placed on wet ice. As soon as practically possible samples were centrifuged (3000 rpm, 10 min, at 4° C.) and the resultant plasma decanted into appropriately labelled polypropylene tubes in 96-well plate format and stored in a freezer set to maintain a temperature of ≤−65° C., until analysis.
as §3, §4

[4] = Plasma protein binding, equilibrium dialysis, mouse; type: in vitro ADME; settings: plasma (10% plasma, extrapolated to 100% plasma), CD-1 plasma, 18 hours at 37° C.
Experimental: Protein binding is measured using the equilibrium dialysis technique. Compound is added to 10% plasma giving a concentration of 10 μM and dialysed with isotonic buffer for 18 hours at 37° C. The plasma and buffer solutions are analysed using generic LC UV/MS and the first apparent binding constant for the compound derived. The binding constant is then used to determine the % free in 100% plasma
The percentage of plasma bound/unbound fraction preparation was calculated as follows
[formula] [formula] where, • Tc=Total plasma concentration was determined by the calculated concentration on the plasma side of the chamber • Fc=[…] was determined by the calculated concentration on the buffer side of the chamber • To=Total compound concentration determined before analysis.

[5] = biological target: T2, A2A receptor (Homo sapiens, UniProt P29274); test: A2aR antagonism IC50, cAMP TR-FRET (Lance Ultra) in HEK-293 cells, NECA as agonist; type: cell-based; settings: A2AR IC50 (nM) (@5 nM NECA), HEK-293 cells expressing A2A receptor; agonist NECA 5 nM (EC90); inhibition of cAMP;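 also: compounds tested from 10 µM down to 0.08 nM in buffer with Rolipram at room temperature, TR-FRET cAMP signal read 1 h after adding Eu-cAMP tracer and ULight anti-cAMP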
T2 construct: host or cells: HEK-293
T2 sequence (P29274 whole entry): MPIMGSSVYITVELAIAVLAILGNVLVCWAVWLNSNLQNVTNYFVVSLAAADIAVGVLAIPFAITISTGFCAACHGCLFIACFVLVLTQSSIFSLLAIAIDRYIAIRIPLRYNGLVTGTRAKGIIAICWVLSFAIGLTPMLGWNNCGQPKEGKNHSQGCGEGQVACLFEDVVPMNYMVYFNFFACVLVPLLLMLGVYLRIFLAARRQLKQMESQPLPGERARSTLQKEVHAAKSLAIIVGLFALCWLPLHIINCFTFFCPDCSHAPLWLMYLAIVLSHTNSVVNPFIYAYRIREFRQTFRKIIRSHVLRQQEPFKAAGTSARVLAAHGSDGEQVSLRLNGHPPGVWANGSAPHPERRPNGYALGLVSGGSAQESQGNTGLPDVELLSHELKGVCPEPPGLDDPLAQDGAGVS
Excerpt: Adenosine A2A receptors and Adenosine A2B receptors induce the production of cAMP when activated/stimulated by an agonist like adenosine or 5′-(N-Ethylcarboxamido) adenosine (NECA). A Time-Resolved Fluorescence Energy Transfer (TR-FRET) assay was used to show the inhibition of this cAMP production in HEK cells upon treatment with compounds of the Formula I of the present disclosure.
HEK-293 cells expressing A2A receptor (#ES-011-C) or A2B receptor (#ES 013-C) were obtained from PerkinElmer. Cells were maintained in DMEM medium supplemented with 10% FBS and 200 μg/mL of G418 at 37° C. and 5% CO2. The cells were cultured in antibiotic free medium for a period of 16-20 hours prior to the assay. All subsequent steps of the assay are performed at room temperature (22-24° C.). The cells were harvested at about 80% confluency by gentle flushing with PBS, recovered by centrifugation and resuspended in stimulation buffer at the concentration of 5.0×10^6 cells/mL.
The assays were conducted in a stimulation buffer containing 1×DMEM, 5 mM HEPES, 0.1% BSA stabilizer and 20-30 μM Rolipram. Serial dilutions of compounds were made in stimulation buffer to achieve a final concentration of high micromolar (10 μM to 0.08 nM) in the reaction volume of 10 μL. The total reaction volume was 10 μL (5 μL of cells, 2.5 μL of antagonist and 2.5 μL of agonist). The stimulation was ended, and the reaction completed by adding 5 μL of 4× Eu-cAMP tracer working solution and 5 μL of 4× ULight-anti-cAMP working solution. The TR-FRET signal was measured after 1-hour incubation using a Tecan M1000 reader.

[6] = Rat, IV bolus, Table 6, read-out: T1/2 (IV bolus) (converted)
[7] = oral, Rat, Table 6, read-out: % F
[8] = oral, Rat, oral vs IV bolus, doses per compound, read-out: % F (bioavailability)
[9] = iv, 3 mg/kg, Dog, IV bolus, Table 6, read-out: T1/2 (IV bolus) (converted)
[10] = iv, 3 mg/kg, Dog, i.v, 3 mg/kg, read-out: t1/2 (converted)
[11] = oral, 10 mg/kg, Dog, Table 6, read-out: % F
[12] = Dog, oral 10 mg/kg vs IV bolus 3 mg/kg, read-out: % F (bioavailability)
[13] = 30 mg/kg, line stands under Dog

Row | Structure (SMILES) | Total CLsystemic in plasma ([1]; Rat, Table 6) [mL/min/kg] | Vd ([1]; intravenous, Rat, Table 6) [L/kg] | half-life [1, 6] [min] | bioavailability [1, 7] [%] | IC50 [2] [nM] | bioavailability [1, 8] [%] | Distribution relative to TBW ([1]; rats & mice) [× TBW] | Total systemic clearance relative to hepatic clearance ([3]; Dog) | Volume of distribution relative to total body water (TBW) ([3]; Dog) [× TBW] | Total CLsystemic in plasma ([3]; Dog, Table 6) [mL/min/kg] | Co (head Co*/) ([3]; Dog, i.v, 3 mg/kg) [ng/m] | half-life [3, 9] [min] | half-life [3, 10] [min] | Vd ([3]; intravenous, Dog, Table 6) [L/kg] | clearance ([3]; iv, Dog, i.v, 3 mg/kg) [mL/min/kg] | Vd ([3]; iv, Dog, i.v, 3 mg/kg) [L/kg] | bioavailability [3, 11] [%] | Cmax ([3]; Dog, 10 mg/kg) [ng/mL] | Tmax ([3]; Dog, 10 mg/kg) [min] | bioavailability [3, 12] [%] | other results
1 | CCc1c(C)nn2c(N)c(C#N)c(NCCc3ccn(C4COCC4CO)n3)nc12 (single isomer, unassigned; (-)) [Example 122b, (−)-7-amino-3-ethyl-5-((2-(1-(4-(hydroxymethyl)tetrahydrofuran-3-yl)-1H-pyrazol-3-yl)ethyl)amino)-2-methyl pyrazolo[1,5-a]pyrimidine-6-carbonitrile] | 78 | 1.6 | 19.8 | 21 | 521 |  |  |  |  |  |  |  |  |  |  |  |  |  |  |  | Total plasma systemic clearance (CL) relative to hepatic blood flow ([1]; Rat, IV bolus): 1.3 ×; Co (head Co*/) ([1]; Rat, i.v, 5 mg/kg): 4169 ng/m; clearance ([1]; iv, Rat, i.v, 5 mg/kg): 78 ± 17 mL/min/kg; Vd ([1]; iv, Rat, i.v, 5 mg/kg): 1.58 L/kg; half-life ([1]; iv, Rat, i.v, 5 mg/kg, read-out: t1/2 (converted)): 18 min; Cmax ([1]; po, Rat, 30 mg/kg): 983 ng/mL; Tmax ([1]; po, Rat, 30 mg/kg): 30 min; bioavailability ([1]; oral, 30 mg/kg, Rat, oral vs IV bolus, doses per compound, read-out: % F (bioavailability)): 21%
2 | Cc1cccc(CCNc2nc3c(C)c(C)nn3c(N)c2C#N)n1 [Example 13, 7-amino-5-((2-(6-methylpyridin-2-yl)ethyl)amino)-2,3-dimethylpyrazolo[1,5-a]pyrimidine-6-carbonitrile] | 69 | 1.4 | 24.6 | < 1 | 2320 | < 5 | 2 | equivalent to that of hepatic clearance | 3 | 33 | 2899 | 46.2 | 42 | 1.8 | 33 ± 3.6 | 1.75 | 25 | 839 | 30 | 25 | Co (head Co*/) ([1]; Rat, i.v, 3 mg/kg): 2242 ng/m; clearance ([1]; iv, Rat, i.v, 3 mg/kg): 69 ± 9 mL/min/kg; Vd ([1]; iv, Rat, i.v, 3 mg/kg): 1.4 L/kg; half-life ([1]; iv, Rat, i.v, 3 mg/kg, read-out: t1/2 (converted)): 24 min; Cmax ([1]; po, Rat, 10 mg/kg): 4.2 ng/mL; Tmax ([1]; po, Rat, 10 mg/kg): 12 min; bioavailability ([1]; po, Rat, oral vs IV bolus, doses per compound, read-out: % F (bioavailability)): < 1%; fraction unbound at 18 h, 10 µM [4]: 0.0933; IC50 [5]: 0.25 nM
3 | CCc1c(C)nn2c(N)c(C#N)c(NCCc3ccn(C4(CO)CC4)n3)nc12 [Example 39, 7-amino-3-ethyl-5-((2-(1-(1-(hydroxymethyl)cyclopropyl)-1H-pyrazol-3-yl)ethyl)amino)-2-methylpyrazolo[1,5-a] pyrimidine-6-carbonitrile] | 90 | 2.4 | 72 | 27 | 1830 | 27 | 2 | 1.7 × | 3.3 | 52 | 1352 | 27 | 24 | 2 | 52 ± 8.7 | 2 | 25 | 618 | 30 | 25 | Co (head Co*/) ([1]; Rat, i.v, 15 mg/kg): 8676 ng/m; clearance ([1]; iv, Rat, i.v, 15 mg/kg): 90 ± 15 mL/min/kg; Vd ([1]; iv, Rat, i.v, 15 mg/kg): 2.4 L/kg; half-life ([1]; iv, Rat, i.v, 15 mg/kg, read-out: t1/2 (converted)): 72 min; Cmax ([1]; po, Rat, 100 mg/kg): 4100 ng/mL; Tmax ([1]; po, Rat, 100 mg/kg): 12 min; Total CL relative to hepatic clearance ([1]; rats & mice): 1.6 ×; Cmax [3, 13]: 201 ng/mL; Tmax [3, 13]: 30 min; fraction unbound at 18 h, 10 µM [4]: 0.125; IC50 [5]: 0.23 nM
